We go through eight compounds from patent publication US9371345B2, “Metathesis catalysts containing onium groups” (Apeiron Synthesis S.A., priority 2012, dated 2016).

A short description of the series: Solubility of the complex in water and alcohols. The class given is physicochemical.

As for `CC(C)c1cccc(C(C)C)c1N1CCN(c2c(C(C)C)cccc2C(C)C)[CH]1[Ru]([Cl])([Cl])=[CH]c1ccccc1OC1CC[N+](C)(C)CC1` [Complex 48], the “Solubility in methanol, ethanol and water/alcohol mixture, in words” value (methanol, ethanol, water/alcohol mixture) is reported as “excellent solubility”. Where the note is “neat / pure water”, the “Solubility in water, in words” value is on record as “Insoluble”.

`Cc1cc(C)c(N2CC(C[N+](C)(C)C)N(c3c(C)cc(C)cc3C)[CH]2[Ru]([Cl])([Cl])=[CH]c2cc([N+](=O)[O-])ccc2OC(C)C)c(C)c1` (stereo not drawn) [Complex 50] gave a Water solubility of 3000 µg/mL.

Regarding `Cc1cc(C)c(N2CC(C[N+](C)(C)C)N(c3c(C)cc(C)cc3C)[CH]2[Ru]([Cl])([Cl])=[CH]c2ccccc2OC2CC[N+](C)(C)CC2)c(C)c1` (stereo not drawn) [Complex 51], the Water solubility came out at 35000 µg/mL.

Compound `CC[N+]1(C)CCN(CC2CN(c3c(C)cc(C)cc3C)[CH]([Ru]([Cl])([Cl])=[CH]c3ccccc3OC(C)C)N2c2c(C)cc(C)cc2C)CC1` (stereo not drawn) [Complex 52] registered a Water solubility of 3000 µg/mL.

As to `CC[N+]1(C)CCN(CC2CN(c3c(C)cc(C)cc3C)[CH]([Ru]([Cl])([Cl])=[CH]c3ccccc3OC3CC[N+](C)(C)CC3)N2c2c(C)cc(C)cc2C)CC1` (stereo not drawn) [Complex 53], the Water solubility was found to be 35000 µg/mL.

`CC(C)Oc1ccccc1[CH]=[Ru]([Cl])([Cl])[CH]1N(c2c(C(C)C)cc(C[N+]3(C)CCOCC3)cc2C(C)C)CCN1c1c(C(C)C)cc(C[N+]2(C)CCOCC2)cc1C(C)C` [Complex 54] gave a Water solubility of 2000 µg/mL.

In turn, `CC(C)c1cc(C[N+]2(C)CCOCC2)cc(C(C)C)c1N1CCN(c2c(C(C)C)cc(C[N+]3(C)CCOCC3)cc2C(C)C)[CH]1[Ru]([Cl])([Cl])=[CH]c1ccccc1OC1CC[N+](C)(C)CC1` [Complex 55] yielded a Water solubility of 65000 µg/mL.

`Cc1cc(C)c(N2CCN(c3c(C)cc(C)cc3C)[CH]2[Ru]([Cl])([Cl])=[CH]c2cc([N+](C)(C)C)ccc2OC(C)C)c(C)c1` [Complex 56] came in with a Water solubility of 1000 µg/mL.
